From patent US20250134890A1, “ANTIMALARIAL HEXAHYDROPYRIMIDINE ANALOGUES” (UCB BIOPHARMA SRL, priority 2022, published 2025) come the findings set out here.

Where a name gives a salt, the structure may show the parent alone.

The subject of the assay is Plasmodium falciparum: 3D7 strain. Kind of assay: P. falciparum 3D7 asexual blood stage assay (SYBR green readout). The conditions noted are these: Plasmodium falciparum, 3D7, Erythrocyte, 72 h, P. falciparum 3D7 in human erythrocytes, 72 h incubation, SYBR green fluorescence. The class given is cell-based. Summed up:
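3D7-infected erythrocytes (5% haematocrit, 0.5% parasitaemia) were exposed 72 h at 37 °C under 1% O2/3% CO2 to a 20-point titration (50,000-15 nM final, 0.5% DMSO). Parasite DNA was read by SYBR green fluorescence after overnight lysis. Percent inhibition was set against mefloquine and DMSO, and EC50 came from a biphasic two-site fit.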
What is called IC50 is the midpoint of a concentration-inhibition curve. The low end stands for higher potency, the high end for lower potency. For `C[C@H]1C[C@@H](N2C(=N)N[C@](C)(c3cccc(-c4cccc(N=S(C)(C)=O)c4)c3Cl)CC2=O)CCC1(F)F` [Example 20, (6S)-6-[2-Chloro-3-(3-{[(dimethyl)-(oxo)-λ^6-sulfanylidene]amino}-phenyl)phenyl]-3-[(1S,3S)-4,4-difluoro-3-methylcyclohexyl]-2-imino-6-methylhexahydro-pyrimidin-4-one hydrochloride], the IC50 came to 88 nM.

`C[C@H]1C[C@@H](N2C(=N)N[C@](C)(c3cccc(-c4cccc(N5CCOCC5)c4)c3Cl)CC2=O)CCO1` [Example 29, (6S)-6-{2-Chloro-3-[3-(morpholin-4-yl)phenyl]phenyl}-2-imino-6-methyl-3-[(2S,4S)-2-methyl-tetrahydropyran-4-yl]hexahydro-pyrimidin-4-one trifluoroacetic acid salt]: the IC50 worked out at 65 nM.

As to `C[C@H]1C[C@@H](N2C(=N)N[C@](C)(c3cccc(-c4cc5cccnc5n4C)c3Cl)CC2=O)CCO1` [Example 30, (6S)-6-[2-Chloro-3-(1-methyl-pyrrolo[2,3-b]pyridin-2-yl)phenyl]-2-imino-6-methyl-3-[(2S,4S)-2-methyltetrahydropyran-4-yl]-hexahydropyrimidin-4-one trifluoroacetic acid salt], 199 nM corresponded to half-maximal inhibition (IC50).

As for `C[C@H]1C[C@@H](N2C(=N)N[C@](C)(c3cccc(-c4ccc(C5CC5)nc4)c3Cl)CC2=O)CCO1` [Example 31, (6S)-6-[2-Chloro-3-(6-cyclopropyl-pyridin-3-yl)phenyl]-2-imino-6-methyl-3-[(2S,4S)-2-methyl-tetrahydropyran-4-yl]hexahydro-pyrimidin-4-one trifluoroacetic acid salt], inhibition was half-maximal at 180 nM (IC50).

The compound `Cc1cc(-c2cccc([C@]3(C)CC(=O)N([C@H]4CCO[C@@H](C)C4)C(=N)N3)c2Cl)on1` [Example 32, (6S)-6-[2-Chloro-3-(3-methyl-isoxazol-5-yl)phenyl]-2-imino-6-methyl-3-[(2S,4S)-2-methyl-tetrahydropyran-4-yl]hexahydro-pyrimidin-4-one trifluoroacetic acid salt] gave an IC50 of 50 nM.

Take `C[C@H]1C[C@@H](N2C(=N)N[C@](C)(c3cccc(-c4ccnnc4)c3Cl)CC2=O)CCO1` [Example 33, (6S)-6-[2-Chloro-3-(pyridazin-4-yl)phenyl]-2-imino-6-methyl-3-[(2S,4S)-2-methyltetrahydropyran-4-yl]hexahydropyrimidin-4-one trifluoroacetic acid salt]: the midpoint of inhibition, the IC50, lay at 186 nM.

`C[C@H]1C[C@@H](N2C(=N)N[C@](C)(c3cccc(-c4ccn(C)c(=O)c4)c3Cl)CC2=O)CCO1` [Example 34, (6S)-6-[2-Chloro-3-(1-methyl-2-oxopyridin-4-yl)phenyl]-2-imino-6-methyl-3-[(2S,4S)-2-methyl-tetrahydropyran-4-yl]hexahydro-pyrimidin-4-one trifluoroacetic acid salt] registered an IC50 of 286 nM.

For the compound `C[C@H]1C[C@@H](N2C(=N)N[C@](C)(c3cccc(-c4cccc5ccccc45)c3Cl)CC2=O)CCO1` [Example 35, (6S)-6-[2-Chloro-3-(naphth-1-yl)-phenyl]-2-imino-6-methyl-3-[(2S,4S)-2-methyltetrahydropyran-4-yl]hexahydropyrimidin-4-one trifluoroacetic acid salt], it took 355 nM to reach half-maximal inhibition (IC50).

Compound `CC(C)c1ccccc1-c1cccc([C@]2(C)CC(=O)N([C@H]3CCO[C@@H](C)C3)C(=N)N2)c1Cl` [Example 36, (6S)-6-[2-Chloro-3-(2-isopropyl-phenyl)phenyl]-2-imino-6-methyl-3-[(2S,4S)-2-methyltetrahydro-pyran-4-yl]hexahydropyrimidin-4-one trifluoroacetic acid salt] returned a 50% inhibitory concentration (IC50) of 95 nM.

Consider `C[C@H]1C[C@@H](N2C(=N)N[C@](C)(c3cccc(-c4ccccc4C(F)(F)F)c3Cl)CC2=O)CCO1` [Example 37, (6S)-6-{2-Chloro-3-[2-(trifluoro-methyl)phenyl]phenyl}-2-imino-6-methyl-3-[(2S,4S)-2-methyl-tetrahydropyran-4-yl]hexahydro-pyrimidin-4-one trifluoroacetic acid salt], for which the IC50 turned out to be 67 nM.

The compound `C[C@H]1C[C@@H](N2C(=N)N[C@](C)(c3cccc(-c4ccc(F)c(F)c4)c3Cl)CC2=O)CCO1` [Example 38, (6S)-6-[2-Chloro-3-(3,4-difluoro-phenyl)phenyl]-2-imino-6-methyl-3-[(2S,4S)-2-methyltetrahydro-pyran-4-yl]hexahydropyrimidin-4-one trifluoroacetic acid salt] registered an IC50 of 135 nM.

In the case of `C[C@H]1C[C@@H](N2C(=N)N[C@](C)(c3cccc(-c4ccncc4)c3Cl)CC2=O)CCO1` [Example 39, (6S)-6-[2-Chloro-3-(pyridin-4-yl)-phenyl]-2-imino-6-methyl-3-[(2S,4S)-2-methyltetrahydropyran-4-yl]hexahydropyrimidin-4-one trifluoroacetic acid salt], 269 nM corresponded to half-maximal inhibition (IC50).

Take `C[C@H]1C[C@@H](N2C(=N)N[C@](C)(c3cccc(-c4cccc(C#N)c4)c3Cl)CC2=O)CCO1` [Example 40, 3-(2-Chloro-3-{(4S)-2-imino-4-methyl-1-[(2S,4S)-2-methyl-tetrahydropyran-4-yl]-6-oxo-hexahydropyrimidin-4-yl}phenyl)-benzonitrile trifluoroacetic acid salt]: half-maximal inhibition (IC50) was put at 50 nM.

`C[C@H]1C[C@@H](N2C(=N)N[C@](C)(c3cccc(-c4cncnc4)c3Cl)CC2=O)CCO1` [Example 41, (6S)-6-[2-Chloro-3-(pyrimidin-5-yl)phenyl]-2-imino-6-methyl-3-[(2S,4S)-2-methyltetrahydropyran-4-yl]hexahydropyrimidin-4-one trifluoroacetic acid salt] yielded an IC50 of 145 nM.

With `C[C@H]1C[C@@H](N2C(=N)N[C@](C)(c3cccc(-c4cc(F)ccc4F)c3Cl)CC2=O)CCO1` [Example 42, (6S)-6-[2-Chloro-3-(2,5-difluoro-phenyl)phenyl]-2-imino-6-methyl-3-[(2S,4S)-2-methyltetrahydro-pyran-4-yl]hexahydropyrimidin-4-one trifluoroacetic acid salt], the IC50 is 88 nM.

Regarding `COc1ccc(-c2cccc([C@]3(C)CC(=O)N([C@H]4CCO[C@@H](C)C4)C(=N)N3)c2Cl)cn1` [Example 43, (6S)-6-[2-Chloro-3-(6-methoxy-pyridin-3-yl)phenyl]-2-imino-6-methyl-3-[(2S,4S)-2-methyl-tetrahydropyran-4-yl]hexahydro-pyrimidin-4-one trifluoroacetic acid salt], the midpoint of inhibition, the IC50, lay at 94 nM.

In turn, `C[C@H]1C[C@@H](N2C(=N)N[C@](C)(c3cccc(-c4cc(F)cc(F)c4)c3Cl)CC2=O)CCO1` [Example 44, (6S)-6-[2-Chloro-3-(3,5-difluoro-phenyl)phenyl]-2-imino-6-methyl-3-[(2S,4S)-2-methyltetrahydro-pyran-4-yl]hexahydropyrimidin-4-one trifluoroacetic acid salt] came in with an IC50 of 103 nM.

`C[C@H]1C[C@@H](N2C(=N)N[C@](C)(c3cccc(-c4ccn[nH]4)c3Cl)CC2=O)CCO1` [Example 45, (6S)-6-[2-Chloro-3-(1H-pyrazol-5-yl)phenyl]-2-imino-6-methyl-3-[(2S,4S)-2-methyltetrahydropyran-4-yl]hexahydropyrimidin-4-one trifluoroacetic acid salt]: the IC50 was determined as 12 nM.
